The target in the test is human RIP1 kinase domain (2-375) (Homo sapiens (Human), UniProt Q13546). Nature of the test: RIP1 kinase inhibition biochemical assay (Transcreener ADP, fluorescence polarization). The settings on record: Ki app from tight-binding Morrison equation; 50 nM enzyme, 50 uM ATP, 2 hours incubation. The method, then:
RIP1 Kinase Inhibition Assays (Biochemical Assay)
The compounds of the present invention were tested for their capacity to inhibit RIP1K activity as described below.
The ability of the receptor interacting protein kinase (RIPK1) to catalyze the hydrolysis of adenosine-5′-triphosphate (ATP) is monitored using the Transcreener ADP (adenosine-5′-diphosphate) assay (BellBrook Labs). Purified human RIP1 kinase domain (2-375) (50 nM) derived from a baculovirus-infected insect cell expression system is incubated with test compounds for 2 hours in 50 mM Hepes buffer (pH 7.5) containing 30 mM MgCl2, 1 mM dithiothreitol, 50 uM ATP, 0.002% Brij-35, and 0.5% dimethyl sulfoxide (DMSO). Reactions are quenched by the addition of 1× Bell Brooks Stop buffer B (20 mM Hepes (ph7.5), 40 mM ethylenediaminetetraacetic acid and 0.02% Brij-35) containing an additional 12 mM EDTA and 55 ug/mL ADP2 antibody and 4 nM ADP-AlexaFluor® 633 tracer. The tracer bound to the antibody is displaced by the ADP generated during the RIP1K reaction, which causes a decrease in fluorescence polarization that is measured by laser excitation at 633 nm with a FP microplate reader M1000. Fractional activity was plotted against test article concentration. Using Genedata Screener software (Genedata; Basel, Switzerland), the data were fit to the tight-binding apparent inhibition constant (Ki^app) Morrison equation [Williams, J. W. and Morrison, J. F. (1979) The kinetics of reversible tight-binding inhibition. Methods Enzymol 63: 437-67]. The following equation was used to calculate fractional activity and Ki^app:
[formula] where [E]T and [I]T are the total concentrations of active enzyme and test article, respectively.
Exemplary compounds of the present invention are provided in Table 1 along with their physiochemical characterization and in vitro RIP1 kinase inhibitory activity data. “Method” in the first column of each table refers to the synthetic method(s) used to prepare each compound as shown in the Examples above. In certain examples, chiral column retention times (min) are provided for certain stereoisomers. Unless otherwise specified, the stereochemistry shown in each structure represents relative configuration of a single stereoisomer, and absolute configuration (i.e., “R” and/or “S”) is arbitrarily assigned. In some embodiments, where the Method is described to include the separation of stereoisomers, a single stereoisomer of a compound of Table 1 is provided.
Sequence of human RIP1 kinase domain (2-375) (Q13546 2-375): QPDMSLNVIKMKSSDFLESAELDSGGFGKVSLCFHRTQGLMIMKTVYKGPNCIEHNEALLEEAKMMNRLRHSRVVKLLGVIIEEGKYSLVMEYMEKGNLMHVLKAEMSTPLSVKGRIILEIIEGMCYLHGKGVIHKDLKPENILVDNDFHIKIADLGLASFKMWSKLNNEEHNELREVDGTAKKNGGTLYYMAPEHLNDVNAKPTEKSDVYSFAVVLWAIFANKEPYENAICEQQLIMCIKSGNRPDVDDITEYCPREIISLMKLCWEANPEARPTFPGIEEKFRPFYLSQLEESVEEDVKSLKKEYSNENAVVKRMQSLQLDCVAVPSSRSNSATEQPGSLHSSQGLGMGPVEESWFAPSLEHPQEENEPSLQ
Consider `O=S(=O)(c1nc2n(n1)[C@H](c1c(F)ccc(F)c1F)C[C@@H]2F)C(F)F` (single isomer, unassigned) [Example 59], for which the Ki stood at 7 nM.

Consider `O=S(=O)(c1nc2n(n1)[C@H](c1cc(F)cc(F)c1F)C[C@@H]2F)C(F)F` (single isomer, unassigned) [Example 60], for which the Ki came to 7 nM.

Turning to `O=S(=O)(c1nc2n(n1)[C@H](c1cccc(Cl)c1)C[C@@H]2F)C(F)F` (single isomer, unassigned) [Example 61], the Ki is 39 nM.

`N#Cc1ccccc1[C@@H]1C[C@H](F)c2nc(S(=O)(=O)C(F)F)nn21` (single isomer, unassigned) [Example 62]: the Ki was 266 nM.

For the compound `O=S(=O)(c1nc2n(n1)[C@H](c1ccc(F)c(F)c1)C[C@@H]2F)C(F)F` (single isomer, unassigned) [Example 63], the Ki came to 34 nM.

Take `O=S(=O)(c1nc2n(n1)[C@H](c1cccc(Cl)c1F)C[C@@H]2F)C(F)F` (single isomer, unassigned) [Example 65]: the Ki amounted to 18 nM.

Turning to `O=S(=O)(c1nc2n(n1)[C@H](c1cc(F)ccc1F)C[C@@H]2F)C(F)F` (single isomer, unassigned) [Example 67], the Ki was found to be 5 nM.

`O=S(=O)(c1nc2n(n1)[C@H](c1cccc(F)c1F)C[C@@H]2F)C(F)F` (single isomer, unassigned) [Example 68] had a Ki of 6 nM.

The compound `O=S(=O)(c1nc2n(n1)[C@H](c1cc(F)cc(F)c1)C[C@@H]2F)C(F)F` (single isomer, unassigned) [Example 69] displayed a Ki of less than 5 nM.

Consider `O=S(=O)(CF)c1nc2n(n1)[C@H](c1ccccc1)C[C@@H]2F` (single isomer, unassigned) [Example 72], for which the Ki was found to be 23 nM.

`[O-][S@@+](CF)c1nc2n(n1)[C@H](c1ccccc1)C[C@@H]2F` (single isomer, unassigned) [Example 73] yielded a Ki of 3 nM.

Turning to `[O-][S@@+](CF)c1nc2n(n1)[C@H](c1ccccc1F)C[C@@H]2F` (single isomer, unassigned) [Example 74], the Ki is less than 5 nM.

`[O-][S@+](CF)c1nc2n(n1)[C@H](c1ccccc1F)C[C@@H]2F` (single isomer, unassigned) [Example 75] registered a Ki of 140 nM.

For the compound `[O-][S@@+](CF)c1nc2n(n1)[C@H](c1cccc(F)c1F)C[C@@H]2F` (single isomer, unassigned) [Example 76], the Ki is less than 5 nM.

The compound `[O-][S@+](CF)c1nc2n(n1)[C@H](c1cccc(F)c1F)C[C@@H]2F` (single isomer, unassigned) [Example 77] displayed a Ki of 280 nM.

In turn, `[O-][S@@+](CF)c1nc2n(n1)[C@H](c1cc(F)ccc1F)C[C@@H]2F` (single isomer, unassigned) [Example 78] displayed a Ki of less than 5 nM.

Take `[O-][S@+](CF)c1nc2n(n1)[C@H](c1cc(F)ccc1F)C[C@@H]2F` (single isomer, unassigned) [Example 79]: the Ki is 190 nM.

Regarding `[O-][S@@+](CF)c1nc2n(n1)[C@H](c1c(F)cccc1F)C[C@@H]2F` (single isomer, unassigned) [Example 80], the Ki is less than 5 nM.

`[O-][S@+](CF)c1nc2n(n1)[C@H](c1c(F)cccc1F)C[C@@H]2F` (single isomer, unassigned) [Example 81]: the Ki is 290 nM.

Compound `[O-][S@@+](CF)c1nc2n(n1)[C@H](c1cccc(F)c1)C[C@@H]2F` (single isomer, unassigned) [Example 82] gave a Ki of less than 5 nM.

As to `[O-][S@+](CF)c1nc2n(n1)[C@H](c1cccc(F)c1)C[C@@H]2F` (single isomer, unassigned) [Example 83], the Ki amounted to 130 nM.

In the case of `[O-][S@@+](CF)c1nc2n(n1)[C@H](c1cc(F)cc(F)c1)C[C@@H]2F` (single isomer, unassigned) [Example 84], the Ki is less than 5 nM.

As for `[O-][S@+](CF)c1nc2n(n1)[C@H](c1cc(F)cc(F)c1)C[C@@H]2F` (single isomer, unassigned) [Example 85], the Ki came to 180 nM.

As to `[O-][S@@+](CF)c1nc2n(n1)[C@H](c1ccccc1Cl)C[C@@H]2F` (single isomer, unassigned) [Example 86], the Ki is less than 5 nM.

Compound `[O-][S@+](CF)c1nc2n(n1)[C@H](c1ccccc1Cl)C[C@@H]2F` (single isomer, unassigned) [Example 87] had a Ki of 100 nM.

As to `N#CCS(=O)(=O)c1nc2n(n1)[C@H](c1ccccc1)C[C@@H]2F` (single isomer, unassigned) [Example 88], the Ki is 32 nM.

As to `N#CCSc1nc2n(n1)[C@H](c1ccccc1)C[C@@H]2F` (single isomer, unassigned) [Example 89], the Ki was determined as 10 nM.

Turning to `N#CCS(=O)(=O)c1cc2n(n1)[C@H](c1ccccc1)C[C@@H]2F` (single isomer, unassigned) [Example 90], the Ki is 8 nM.

Compound `N#CC[S@@+]([O-])c1cc2n(n1)[C@H](c1ccccc1)C[C@@H]2F` (single isomer, unassigned) [Example 91] showed a Ki of 150 nM.

Turning to `N#CC[S@+]([O-])c1cc2n(n1)[C@H](c1ccccc1)C[C@@H]2F` (single isomer, unassigned) [Example 92], the Ki is 19 nM.

`N#CC[S@+]([O-])c1nc2n(n1)[C@H](c1ccccc1Cl)C[C@@H]2F` (single isomer, unassigned) [Example 93] had a Ki of 92 nM.

Consider `N#CC[S@@+]([O-])c1nc2n(n1)[C@H](c1ccccc1Cl)C[C@@H]2F` (single isomer, unassigned) [Example 94], for which the Ki was determined as 4 nM.

Regarding `N#CC[S@+]([O-])c1nc2n(n1)[C@H](c1ccccc1F)C[C@@H]2F` (single isomer, unassigned) [Example 95], the Ki came to 190 nM.

On to `N#CC[S@@+]([O-])c1nc2n(n1)[C@H](c1ccccc1F)C[C@@H]2F` (single isomer, unassigned) [Example 96], for which the Ki turned out to be 3 nM.

`N#CC[S@+]([O-])c1nc2n(n1)[C@H](c1cccc(F)c1)C[C@@H]2F` (single isomer, unassigned) [Example 97]: the Ki is 190 nM.

With `N#CC[S@@+]([O-])c1nc2n(n1)[C@H](c1cccc(F)c1)C[C@@H]2F` (single isomer, unassigned) [Example 98], the Ki was 3 nM.

Take `N#CC[S@+]([O-])c1nc2n(n1)[C@H](c1ccc(F)cc1)C[C@@H]2F` (single isomer, unassigned) [Example 99]: the Ki was found to be 530 nM.

Compound `N#CC[S@@+]([O-])c1nc2n(n1)[C@H](c1ccc(F)cc1)C[C@@H]2F` (single isomer, unassigned) [Example 100] came in with a Ki of 3 nM.

In turn, `N#CC[S@+]([O-])c1nc2n(n1)[C@@H](c1ccccc1Cl)C[C@H]2F` (single isomer, unassigned) [Example 101] came in with a Ki of 47 nM.

For `CC(C)(C#N)S(=O)(=O)c1nc2n(n1)[C@H](c1ccccc1)C[C@@H]2F` (single isomer, unassigned) [Example 104], the Ki came to 14 nM.

As to `CS(=O)(=O)c1nc2n(n1)[C@H](c1ccccc1)C[C@@H]2F` (single isomer, unassigned) [Example 106], the Ki was 22 nM.

`CCS(=O)(=O)c1nc2n(n1)[C@H](c1ccccc1)C[C@@H]2F` (single isomer, unassigned) [Example 108] came in with a Ki of 11 nM.

`CC(C)S(=O)(=O)c1nc2n(n1)[C@H](c1ccccc1)C[C@@H]2F` (single isomer, unassigned) [Example 110] yielded a Ki of 14 nM.

`O=S(=O)(CC1CC1)c1nc2n(n1)[C@H](c1ccccc1)C[C@@H]2F` (single isomer, unassigned) [Example 112] registered a Ki of 60 nM.

As to `O=S(=O)(CC(F)(F)F)c1nc2n(n1)[C@H](c1ccccc1)C[C@@H]2F` (single isomer, unassigned) [Example 114], the Ki amounted to 71 nM.

Compound `COCS(=O)(=O)c1nc2n(n1)[C@H](c1ccccc1)C[C@@H]2F` (single isomer, unassigned) [Example 116] gave a Ki of 170 nM.

Turning to `O=S(=O)(c1nc2n(n1)[C@H](c1ccccc1F)C[C@@H]2F)[C@H]1CC1(F)F` (single isomer, unassigned) [Example 119], the Ki turned out to be 7 nM.

`O=S(=O)(c1nc2n(n1)[C@H](c1ccccc1Cl)C[C@@H]2F)[C@H]1CC1(F)F` (single isomer, unassigned) [Example 120] came in with a Ki of less than 5 nM.

As for `O=S(=O)(c1nc2n(n1)[C@H](c1cc(F)ccc1F)C[C@@H]2F)C1CC1(F)F` (single isomer, unassigned) [Example 122], the Ki amounted to 12 nM.

(Values after patent publication US11072617B2, “Bicyclic sulfones and sulfoxides and methods of use thereof” (Genentech, Inc., priority 2017, dated 2021).)
